Reference: PMC10897476, “Pyridylpiperazine efflux pump inhibitor boosts in vivo antibiotic efficacy against K. pneumoniae” (EMBO Molecular Medicine, 2023)
“And” between values parts separate entries of the source, which are not always exact repeats. Equal entries are not always repeated. Where two headings read alike, the source gives them in different places. Marks after values point to notes of the source that are not given here.

Assays:
Type in all cases: cell-based, Klebsiella pneumoniae
[1] = tested on: K. pneumoniae RamR^mut (K124*stop); test: Checkerboard assay levofloxacin x EPI, RamR mutant; conditions: for checkerboard growth readout: ATCC43816 ramRmut, EPI 0 µM; for MIC: Klebsiella pneumoniae
Description: (§1) MIC experiments were carried out according to the CLSI guidelines (CLSI [2023]). Overnight cultures were diluted to an OD600 = 0.001 in CAMHB followed by addition of efflux pump inhibitors (EPIs) at a final concentration of 100 µM. […] Plates were incubated at 37 °C for up to 20 h. Bacterial viability was evaluated using the resazurin microtitre assay (REMA) and measured by fluorescence using a Tecan Spaert multimode plate reader (Ex: 530 nm Em: 590 nm). MICs were defined as the concentration that prevented 90% of resazurin turnover compared to the non-treated bacteria.
(§2) Bacterial suspensions, incubation and plate readouts were carried out as described above.

[2] = tested on: K. pneumoniae ATCC 43816 (WT); test: Checkerboard assay levofloxacin x EPI, WT strain; conditions: for checkerboard growth readout: ATCC43816 WT, EPI 0 µM; for MIC: Klebsiella pneumoniae; for Median REMA values (percentage resazurin turnover): median n=3; for Median REMA values (percentage resazurin turnover) / percentage resazurin turnover: listed as Lev; for percentage resazurin turnover: individual replicates
Description: as §1, §2

[3] = tested on: K. pneumoniae AcrB^V448E; test: MIC of antibiotics with and without EPI (REMA), AcrB V448E mutant; conditions: for Minimum Inhibitory Concentration: K. pneumoniae AcrB^V448E
Procedure, shortened: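 K. pneumoniae ATCC 43816 carrying single chromosomal acrB or ramR mutations introduced by allelic exchange, diluted to OD600 = 0.001 in CAMHB with EPI at final 100 µM. Incubated 37 °C up to 20 h; viability by resazurin fluorescence (Ex 530/Em 590 nm).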

[4] = tested on: K. pneumoniae AcrB^V448E RamR^mut; test: Checkerboard assay levofloxacin x EPI, double mutant; conditions: ATCC43816 AcrBV448E ramRmut, EPI 0 µM
Description: as §1, §2

[5] = tested on: K. pneumoniae AcrB^V448E; test: Checkerboard assay levofloxacin x EPI, AcrB V448E mutant; conditions: ATCC43816 AcrBV448E, EPI 0 µM
Description: as §1, §2

In the case of `C[C@H]1COc2c(N3CCN(C)CC3)c(F)cc3c(=O)c(C(=O)O)cn1c23` [Levofloxacin], the checkerboard growth readout ([1]; levofloxacin 4 ng/mL) is reported as 106 and 109, the checkerboard growth readout ([1]; levofloxacin 8 ng/mL) is reported as 110 and 118 and the checkerboard growth readout ([1]; levofloxacin 15.625 ng/mL) is reported as 111 and 109. For the same molecule, the checkerboard growth readout ([1]; levofloxacin 62.5 ng/mL) was 111 and 123, the checkerboard growth readout ([1]; levofloxacin 250 ng/mL) was 61 and 91 and the MIC ([1]; read-out: levofloxacin MIC (checkerboard)) was 0.5 µg/mL. The MIC ([1]; read-out: levofloxacin boosted MIC (checkerboard)) was 0.016 µg/mL, the checkerboard growth readout ([2]; levofloxacin 4 ng/mL) was 114 and 99 and the checkerboard growth readout ([2]; levofloxacin 8 ng/mL) was 102 and 104. For the same molecule, the checkerboard growth readout ([2]; levofloxacin 15.625 ng/mL) was 112 and 95, the checkerboard growth readout ([2]; levofloxacin 31.25 ng/mL) was 88 and 69 and the MIC ([2]; ATCC43816, read-out: levofloxacin MIC (checkerboard)) was 0.0625 µg/mL. The MIC ([2]; ATCC43816, read-out: levofloxacin boosted MIC (checkerboard)) was 0.016 µg/mL, the “Median REMA values (percentage resazurin turnover)” value ([2]; Lev 0.24 ng/mL + EPI 0.00 uM) was 82% and 111% and the “Median REMA values (percentage resazurin turnover)” value ([2]; Lev 0.49 ng/mL + EPI 0.00 uM) was 103% and 87%. The “Median REMA values (percentage resazurin turnover)” value ([2]; Lev 0.98 ng/mL + EPI 0.00 uM) was 102% and 101%, the percentage resazurin turnover ([2]; Lev 1.95 ng/mL + EPI 0.00 uM) was 92% and 97% and the “Median REMA values (percentage resazurin turnover)” value ([2]; Lev 1.95 ng/mL + EPI 0.00 uM) was 101% and 92%. The percentage resazurin turnover ([2]; Lev 3.91 ng/mL + EPI 0.00 uM) was 128% and 114% and 108%, the “Median REMA values (percentage resazurin turnover)” value ([2]; Lev 3.91 ng/mL + EPI 0.00 uM) was 99% and 114% and the percentage resazurin turnover ([2]; Lev 7.81 ng/mL + EPI 0.00 uM) was 102% and 106% and 72%. The “Median REMA values (percentage resazurin turnover)” value ([2]; Lev 7.81 ng/mL + EPI 0.00 uM) was 104% and 102%, the percentage resazurin turnover ([2]; Lev 15.63 ng/mL + EPI 0.00 uM) was 100% and 112% and 143% and the “Median REMA values (percentage resazurin turnover)” value ([2]; Lev 15.63 ng/mL + EPI 0.00 uM) was 95% and 112%. The percentage resazurin turnover ([2]; Lev 31.25 ng/mL + EPI 0.00 uM) was 88% and 76% and 139%, the “Median REMA values (percentage resazurin turnover)” value ([2]; Lev 31.25 ng/mL + EPI 0.00 uM) was 69% and 88% and the percentage resazurin turnover ([2]; Lev 62.50 ng/mL + EPI 0.00 uM) was -0.208% and 0.0384% and 0.176%. The “Median REMA values (percentage resazurin turnover)” value ([2]; Lev 62.50 ng/mL + EPI 0.00 uM) was -0.588% and 0.0384%, the percentage resazurin turnover ([2]; Lev 500.00 ng/mL + EPI 0.00 uM) was -0.171% and 0.0154% and 0.238% and the “Median REMA values (percentage resazurin turnover)” value ([2]; Lev 500.00 ng/mL + EPI 0.00 uM) was -0.604% and 0.0154%. For the same molecule, the percentage resazurin turnover ([2]; Lev 1000 ng/mL + EPI 0.00 uM) was -0.203% and 0.204% and -0.0468%, the “Median REMA values (percentage resazurin turnover)” value ([2]; Lev 1000 ng/mL + EPI 0.00 uM) was -0.268% and -0.0468% and the “Minimum Inhibitory Concentration” value ([3]; + 100 µM 1') was 0.03 mg/L. For the same molecule, the “Minimum Inhibitory Concentration” value ([3]; + 100 µM 5) was 0.03 mg/L, the “Minimum Inhibitory Concentration” value ([3]; + 100 µM PAβN) was 0.02^# mg/L and the MIC ([3]; Klebsiella pneumoniae, read-out: Minimum Inhibitory Concentration) was 0.04 µg/mL. For the same molecule, the checkerboard growth readout ([4]; levofloxacin 4 ng/mL) was 105 and 97, the checkerboard growth readout ([4]; levofloxacin 8 ng/mL) was 113 and 94 and the checkerboard growth readout ([4]; levofloxacin 15.625 ng/mL) was 114 and 99. For the same molecule, the checkerboard growth readout ([4]; levofloxacin 31.25 ng/mL) was 121 and 95, the checkerboard growth readout ([4]; levofloxacin 62.5 ng/mL) was 141 and 104 and the checkerboard growth readout ([4]; levofloxacin 250 ng/mL) was 148 and 137. The checkerboard growth readout ([4]; levofloxacin 500 ng/mL) was 131 and 124, the checkerboard growth readout ([5]; levofloxacin 4 ng/mL) was 107 and 101 and the checkerboard growth readout ([5]; levofloxacin 8 ng/mL) was 111 and 91.
